Experimental data: patent US20050257287A1, “Vectors capable of imparting herbicide resistance and viral cross protection and methods” (priority 2002, published 2005)

System: weeds including nutgrass (Cyperus rotundus L.), little hogweed (Portulaca oleracea L.), pigweed (Amaranthus sp.) and annual graminaceous weeds
Assay: Field experiment: weed eradication by Basta
Type: in vivo
Details: 0.5% Basta with or without AMS 1.5 g/L
Description: Two varieties of melon (Galia-type cv. 5080 and Ananas-type cv. Ofir), two varieties of watermelon (cvs Crimson and Seedless 313), squash (cv. Maayan) and cucumber (cv. Shimshon) were seeded in Speedling type trays. Seedlings were inoculated by bombardment of cotyledons with the AGII-Bar or AGII construct. Plants were planted in a 500 m^2 field, in a sandy loam soil, at 0.5 m intervals in six 2 m wide rows and irrigated by a single line of 0.5 m interval dripline. Each row included 15 plants of each of the five-cucurbit varieties, 13 plants inoculated with AGII-Bar and two inoculated with AGII as a control. Irrigation was initiated a week previously to boost weeds and facilitate planting. […] The active ingredient was calculated per hectare (g a.i./ha) on basis of ground speed measured separately for each treatment. […] Squash fruit were picked and counted daily. […] Each group was counted and then weighed collectively.
In order to verify the applicability of AGII-Bar to commercial cucurbit cultivation in a field prone to weed infestation an experiment including more than 450 plants was conducted. […] Ten day post inoculation, the infection rate was determined by ELISA of 50 random plant samples and found to be 100%. […]

## ammonium sulphate [AMS]
  Effect of adjuvant on herbicidal activity: did not exert a detectable difference
